US8703744B2, “Cholesterol level lowering liposomes” (priority 2009, dated 2014)

Tested on: Huh7.5 cells
Assay: Uptake of rh-PE-labeled 22:6 ER liposomes into Huh7.5 cells in the presence of drugs that up- and down-regulate LDLr expression
Assay type: cell-based, human
Settings: 10 μM, 24 h pre-treatment, then 50 μM rhodamine-labeled 22:6 ER liposomes for 24 h
Experimental: Liposomes were prepared as described in US patent publication no. 20090252785 and included 1% (total moles) of rh-PE for monitoring their uptake in cells. JC-1-infected (MOI=0.5) or uninfected Huh7.5 cells were seeded in 6 well plates at a density of 3×10^5 cell/well in 2 ml of complete DMEM/10% FCS medium. Cells were either pre-treated or not with 1 μM and 10 μM squalestatin (SQ, Sigma) or 25-hydroxycholesterol (25-HC, Sigma) for 24 h in serum-free complete DMEM. Following the 24 h pre-incubation, rh-labeled liposomes were added to a final lipid concentration of 50 μM, and left to incubate for a further 24 h. Following incubation times, cells were washed twice in 1×PBS, detached, counted, and resuspended in 200 μl 1×PBS/1% Triton® X-100 before being transferred to a 96 well plate to read in a spectrofluorometer at λex=550 nm, Xem=590 nm.
22:6 ER liposomes (final lipid concentration of 50 μM), labeled with 1% rh-PE in the lipid bilayer, were then added to cells and left to incubate a further 24 h. Cells were then harvested, counted, and rh-PE fluorescence was measured at λex=550 nm, Xem=590 nm. All data represent the mean and SD of triplicates from three independent experiments. Data are presented in relation to the untreated control (100%), and significant differences from this value are denoted with * (P<0.05) or ** (P<0.001).

SMILES | decrease in liposome uptake [%] | liposome uptake, in relation to the untreated control (100%) [%]
C[C@H](CCCC(C)(C)O)[C@H]1CC[C@H]2[C@@H]3CC=C4C[C@@H](O)CC[C@]4(C)[C@H]3CC[C@]12C [25-HC, 25-hydroxycholesterol] | 69 | –
C=C(CC[C@]12O[C@H](C(=O)O)[C@@](O)(C(=O)O)[C@](C(=O)O)(O1)[C@H](OC(=O)/C=C/[C@@H](C)C[C@@H](C)CC)[C@H]2O)[C@@H](OC(C)=O)[C@H](C)Cc1ccccc1 [SQ, squalestatin] | – | 117
